This is an account of results in PubChem BioAssay (NCI).

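Each compound was tested at five concentrations against cells in 96-well plates for 48 hours. Abbreviation: GI50, concentration required for 50% inhibition of growth. TGI: concentration producing complete growth inhibition.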

What all share (experiment): growth of human tumour cells (NCI), 48 h
For experiment [1], the system named is A498 renal.
Experiment [2] relates to HCT-15 colon.
Experiment [3] has as its system HS 578T breast.
Experiment [4] relates to MDA-MB-435.
The test system of experiment [5] is MOLT-4 leukemia.
Experiment [6] deals with PC-3 prostate.
The subject of experiment [7] is RPMI-8226 leukemia.
Experiment [8] concerns RXF 393 renal.
Experiment [9] deals with TK-10 renal.
The test system of experiment [10] is UACC-257 melanoma.

With `Cc1cc(N(CCNc2ccnc3cc(Cl)ccc23)Cc2ccc3c(c2)OCO3)nc(N2CCCC2)n1`, the GI50 in experiment [1] is 1.61 µM; in experiment [2], 1.22 µM; in experiment [3] it was 1.72 µM; in experiment [4], 1.62 µM; in [5], 1.86 µM; in [6], 2.85 µM. In addition, the GI50 in experiment [7] is 1.47 µM; in experiment [8], 1.28 µM; in experiment [9], 1.74 µM; in experiment [10] it was 1.64 µM. The TGI in experiment [1] was found to be 3.94 µM; in [2] it was 3.18 µM; in [3] it was 5.02 µM; in experiment [4] it was 3.18 µM; in [5] it was 7.03 µM; in [6] it was 14 µM. Besides, the TGI came out at 3.99 µM in experiment [7], 2.74 µM in experiment [8], 3.8 µM in [9] and 3.24 µM in experiment [10].
In the case of `CC12O[C@H](C[C@@H](OC(=O)CCC(=O)O)[C@H]1O)n1c3ccccc3c3c4c(c5c6ccccc6n2c5c31)C(=O)NC4=O`, the GI50 is 0.168 µM in experiment [1]; 0.767 µM in [2]; 2.43 µM in experiment [3]; 0.708 µM in experiment [4]; 0.949 µM in experiment [5]; 3.44 µM in experiment [6]. Also, the GI50 was 5.98 µM in experiment [7], 0.598 µM in experiment [8], 0.411 µM in experiment [9] and 1.52 µM in [10]. Also, the TGI in [1] is 1.15 µM; in experiment [2], 16.4 µM; in experiment [3], 28.4 µM; in [4] it was 7.08 µM; in experiment [5] it was 18 µM; in experiment [6] it was more than 50 µM. In addition, the TGI in experiment [7] is 24.3 µM; in experiment [8], 4.16 µM; in [9], 10.9 µM; in [10], 10.6 µM.
`CCOC(=O)/C=C1/SC(=Nc2ccc(C#N)cc2)N(Cc2ccco2)C1=O`: the GI50 is 14.8 µM in [1]; 2.02 µM in experiment [2]; 6.96 µM in [3]; 3.44 µM in experiment [4]; 2.81 µM in experiment [5]; 3.11 µM in [6]. The GI50 was 2.4 µM in experiment [7], 1.48 µM in [8], 2.54 µM in experiment [9] and 5.34 µM in [10]. The TGI in experiment [1] is 30 µM; in experiment [2], 5.13 µM; in [3] it was more than 100 µM; in experiment [4], 15.8 µM; in experiment [5], 8.31 µM; in experiment [6], 9.96 µM. The TGI amounted to 7.46 µM in experiment [7], 2.96 µM in [8], 8.19 µM in [9] and 18.4 µM in experiment [10].
Regarding `N#Cc1c(N)nc(N2CCOCC2)c(C#N)c1-c1c(Cl)cccc1Cl`, the GI50 in experiment [1] is 3.75 µM; in experiment [2] it was 4.04 µM; in experiment [3], 5.07 µM; in [4], 1.57 µM; in [5], 5.1 µM; in experiment [6] it was 5.64 µM. In addition, the GI50 was 4.41 µM in [7], 4.58 µM in experiment [8], 20.9 µM in [9] and 5.16 µM in experiment [10]. The TGI in experiment [1] came to 23.1 µM; in [2], 25.8 µM; in experiment [3], 63.9 µM; in [4], 3.8 µM; in experiment [5], 86.5 µM; in experiment [6], 31.1 µM. Moreover, the TGI in experiment [7] was 47.5 µM; in experiment [8], 28.3 µM; in [9] it was more than 100 µM; in [10], 30.4 µM.
Consider `O=C1NC(=NCCc2ccc(Br)cc2)S/C1=C\c1ccc2ncccc2c1`, for which the GI50 in experiment [1] was 6.29 µM; in experiment [2] it was more than 22.3 µM; in experiment [3], 11 µM; in [4], 11.8 µM; in experiment [5], 19.7 µM; in experiment [6] it was more than 25 µM. Also, the GI50 was more than 25 µM in experiment [7], more than 20.9 µM in experiment [8], more than 20.1 µM in experiment [9] and more than 25 µM in experiment [10]. Further, the TGI in experiment [1], in [2], in experiment [3], in experiment [4], in [5] and in experiment [6] was more than 25 µM throughout. The TGI in experiment [7], in experiment [8], in [9] and in experiment [10] was more than 25 µM throughout.
Consider `CC(C)(C)[Si](C)(C)OC1[C@@H](COC(=O)NC(=O)CCl)O[C@@H](n2cnc3c(N)ncnc32)[C@H]1O[Si](C)(C)C(C)(C)C` (stereo not given in full), for which the GI50 in experiment [1] is 6.58 µM; in experiment [2], 1 µM; in [3], 7.62 µM; in experiment [4] it was 2.35 µM; in experiment [5] it was 1.01 µM; in [6], 3.15 µM. The GI50 in experiment [7] is 1.54 µM; in [8], 2.33 µM; in experiment [9] it was 9.14 µM; in experiment [10], 6.98 µM. For the same molecule, the TGI in experiment [1] stood at 13.1 µM; in experiment [2] it was 2.21 µM; in experiment [3], 19.3 µM; in [4], 8.89 µM; in experiment [5], 2.22 µM; in experiment [6], 9.79 µM. The TGI came out at 5.63 µM in [7], 7.99 µM in [8], 16.1 µM in [9] and 13.8 µM in [10].
On to `COc1ccc2c(c1)C(=O)c1c-2n(CCCN(C)C)c(=O)c2cc([N+](=O)[O-])ccc12`, for which the GI50 is 0.036 µM in experiment [1]; 0.0239 µM in experiment [2]; 3.04 µM in experiment [3]; less than 0.01 µM in experiment [4]; less than 0.01 µM in [5]; less than 0.0278 µM in experiment [6]. For the same molecule, the GI50 is less than 0.01 µM in experiment [7], less than 0.01 µM in experiment [8], 0.604 µM in experiment [9] and 0.227 µM in experiment [10]. Besides, the TGI came to 0.694 µM in experiment [1]; 1.29 µM in [2]; 21.3 µM in [3]; 1.32 µM in experiment [4]; 0.282 µM in experiment [5]; 1.05 µM in [6]. In addition, the TGI in experiment [7] was determined as 0.0707 µM; in [8] it was 0.0926 µM; in experiment [9], 5.38 µM; in experiment [10], 29.4 µM.
